Experimental data as given in PubChem BioAssay (NCI).
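Cultured in 96-well plates, cells were exposed to test compound for 48 hours across five concentrations. The concentration for full growth arrest is given as TGI.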

Experiments:
Assay in all cases: growth of human tumour cells (NCI), 48 h
SNB-19 CNS = tested on: SNB-19 CNS
SNB-75 CNS = tested on: SNB-75 CNS
MCF7 breast = tested on: MCF7 breast
MOLT-4 leukemia = tested on: MOLT-4 leukemia
HCT-116 colon = tested on: HCT-116 colon
IGROV1 ovarian = tested on: IGROV1 ovarian
HS 578T breast = tested on: HS 578T breast
NCI-H522 lung = tested on: NCI-H522 lung
RPMI-8226 leukemia = tested on: RPMI-8226 leukemia
OVCAR-5 ovarian = tested on: OVCAR-5 ovarian

SMILES	TGI (SNB-19 CNS)	TGI (SNB-75 CNS)	TGI (MCF7 breast)	TGI (MOLT-4 leukemia)	TGI (HCT-116 colon)	TGI (IGROV1 ovarian)	TGI (HS 578T breast)	TGI (NCI-H522 lung)	TGI (RPMI-8226 leukemia)	TGI (OVCAR-5 ovarian)
Cc1ccccc1NC(=S)N=Nc1c(O)[nH]c2ccccc12	> 100 µM	> 100 µM	> 100 µM	> 100 µM	> 100 µM	> 100 µM	> 100 µM	> 100 µM	> 100 µM	> 100 µM
N=C1N=C(N)c2cc3c(cc21)SCCSCCCSCCS3	32.3 µM	46.9 µM	> 55.7 µM	32.5 µM	23.6 µM	38.4 µM	44.2 µM	11.1 µM	–	40.3 µM
C=C1C(=O)[C@]23[C@H](O)[C@H]1CC[C@H]2[C@@]12CO[C@@]3(O)C[C@@H]1C(C)(C)CC[C@@H]2O	> 25 µM	> 25 µM	13.1 µM	> 25 µM	16.2 µM	20.9 µM	22.2 µM	8.8 µM	> 25 µM	> 25 µM
CC1(C)Oc2ccc(Cl)cc2C12CC2	31.5 µM	32.3 µM	33.3 µM	44.1 µM	29 µM	28.7 µM	44.8 µM	–	> 100 µM	34.2 µM
C=CCC1NCCC2=C1C(S(=O)(=O)c1ccc(C)cc1)c1ccccc12 (stereo not given)	33.2 µM	18.9 µM	22 µM	> 100 µM	23.6 µM	23.3 µM	35.1 µM	26 µM	27.8 µM	33.2 µM
CCOC(OCC)C(CCc1ccccc1)c1c(N)nc(N)[nH]c1=O (stereo not given)	> 100 µM	> 100 µM	> 100 µM	> 100 µM	> 100 µM	> 100 µM	> 100 µM	–	> 100 µM	73.3 µM
CC(=O)O[C@H]1CC[C@@]2(C)C(=CC[C@@H]3[C@@H]2CC[C@]2(C)c4nc(N)c(C#N)cc4C[C@@H]32)C1	> 100 µM	23.6 µM	> 100 µM	> 100 µM	> 100 µM	> 100 µM	> 95.2 µM	> 100 µM	> 100 µM	> 100 µM
CC1NOC(NS(=O)(=O)c2ccc(N=Nc3c(O)c(C(=O)O)cc4ccccc34)cc2)C1C (stereo not given)	> 100 µM	> 100 µM	> 100 µM	> 100 µM	> 100 µM	> 100 µM	> 100 µM	> 100 µM	> 100 µM	> 100 µM
Cc1nnc(N)nc1/C=C\c1cccs1	> 100 µM	–	> 100 µM	> 100 µM	35.5 µM	28.7 µM	> 100 µM	17.6 µM	55.4 µM	68.3 µM
O=c1[nH]c(=O)n(C2CC(O)C(CO)O2)cc1NN=NCc1ccccc1 (stereo not given)	> 100 µM	> 100 µM	> 100 µM	> 100 µM	> 100 µM	> 100 µM	> 100 µM	> 100 µM	–	> 100 µM
O=C(c1ccc(Cl)cc1)N(Cc1cccnc1)C(=S)N(Cc1cccnc1)C(=O)c1ccc(Cl)cc1	> 100 µM	> 100 µM	> 100 µM	> 100 µM	80.3 µM	–	> 100 µM	69.1 µM	> 100 µM	> 100 µM
O=C1C[C@H](c2ccccc2)C2(C(=O)c3ccccc3C2=O)[C@@H](c2ccccc2)C1	> 100 µM	> 100 µM	83 µM	> 100 µM	–	> 100 µM	> 100 µM	> 100 µM	> 100 µM	> 100 µM
COCC(=O)[C@]1(O)Cc2c(O)c3c(c(O)c2[C@@H](OC2CC(N)C(O)C(C)O2)C1)C(=O)c1c(OC)cccc1C3=O (stereo not given in full)	2.45 µM	0.161 µM	–	0.054 µM	1.08 µM	6.83 µM	0.0892 µM	0.124 µM	0.564 µM	1.04 µM
O=C1c2ccccc2C2(c3ccc(Cl)cc3)NCc3ccccc3CN12 (stereo not given)	51.6 µM	> 100 µM	40 µM	91.7 µM	22.6 µM	94.7 µM	56.7 µM	–	75.2 µM	58.1 µM
Cc1ccc(S(=O)(=O)n2cc(-c3cnc(N)c(Br)n3)c3ccccc32)cc1	> 46.1 µM	> 22.5 µM	> 45.7 µM	10.7 µM	–	5.71 µM	2.97 µM	–	49.6 µM	> 77.1 µM
COc1ccc(OC)c(CNc2ccc(O)c(C(=O)NCCc3ccc(F)cc3)c2)c1	54.1 µM	–	59.2 µM	21.5 µM	27.1 µM	20.9 µM	> 100 µM	7.56 µM	15.4 µM	64.9 µM
Cc1cc(NC2=NCCO2)c2c(c1C)CCCC2	38.8 µM	67.5 µM	31 µM	95.3 µM	> 100 µM	> 100 µM	> 100 µM	–	45.3 µM	57.1 µM
CC(=O)c1ccc2c(c1)oc(=O)n2CCN(C)C	–	> 100 µM	> 100 µM	> 100 µM	> 100 µM	> 100 µM	> 100 µM	–	–	> 100 µM
Cc1cc(S(=O)(=O)O)ccc1N=Nc1ccc(N=Nc2c(O)ccc3ccccc23)c(C)c1	> 100 µM	> 100 µM	–	> 100 µM	> 100 µM	> 100 µM	> 100 µM	68.5 µM	> 100 µM	> 100 µM
C[C@H](CC[C@@H](O)C(C)(C)O)[C@H]1CC[C@@]2(C)[C@@H]3CC=C4[C@@H](CC[C@H](OC5OC(CO)C(O)C(O)C5O)C4(C)C)[C@]3(C)C(=O)C[C@]12C (stereo not given in full)	> 100 µM	> 100 µM	> 100 µM	> 100 µM	> 100 µM	44.3 µM	> 100 µM	> 100 µM	–	> 100 µM
O=C1Nc2ccccc2NC1C1OC(c2ccccc2)=CC1=O (stereo not given)	> 100 µM	> 100 µM	> 100 µM	> 100 µM	> 100 µM	> 100 µM	> 100 µM	–	> 100 µM	> 100 µM
CC(C)(C)OC(=O)NC(CCCCNC(=O)OCc1ccccc1)C(=O)NC(CCCCNC(=O)OCc1ccccc1)C(=O)ON1C(=O)CCC1=O (stereo not given)	> 100 µM	> 100 µM	> 100 µM	> 100 µM	> 100 µM	> 100 µM	> 100 µM	–	> 100 µM	> 100 µM
